From the NIST ThermoML archive (doi:10.1021/je060116w)
Numbers after ± are expanded uncertainties.

Settings: Hot wire method

FC(F)CC(F)(F)F [1,1,1,3,3-pentafluoropropane]
Liquid
Settings | thermal conductivity [W/m/K]
244.4 K | 0.1044 ± 0.0021
244.64 K | 0.1043 ± 0.0021
244.9 K | 0.1041 ± 0.0021
254.41 K | 0.1014 ± 0.0021
254.67 K | 0.1014 ± 0.0021
254.94 K | 0.1013 ± 0.0021
264.37 K | 0.09835 ± 0.002
264.64 K | 0.0982 ± 0.002
264.91 K | 0.0981 ± 0.002
274.38 K | 0.09519 ± 0.0019
274.66 K | 0.09525 ± 0.0019
274.94 K | 0.09497 ± 0.0019
284.51 K | 0.09219 ± 0.0019
284.8 K | 0.09211 ± 0.0019
285.08 K | 0.09178 ± 0.0019
294.42 K | 0.08894 ± 0.0018
294.67 K | 0.08895 ± 0.0018
294.99 K | 0.08862 ± 0.0018
304.46 K | 0.08598 ± 0.0018
304.72 K | 0.08564 ± 0.0018
305.08 K | 0.08542 ± 0.0018
314.17 K | 0.0826 ± 0.0017
314.45 K | 0.08276 ± 0.0017
314.53 K | 0.08259 ± 0.0017
314.76 K | 0.08269 ± 0.0017
314.8 K | 0.08262 ± 0.0017
315.13 K | 0.08252 ± 0.0017
315.17 K | 0.08234 ± 0.0017
324.46 K | 0.0795 ± 0.0016
324.78 K | 0.07945 ± 0.0016
325.15 K | 0.07953 ± 0.0016
334.52 K | 0.07649 ± 0.0016
334.84 K | 0.0765 ± 0.0016
335.21 K | 0.0765 ± 0.0016
344.59 K | 0.07365 ± 0.0015
344.93 K | 0.07351 ± 0.0015
345.31 K | 0.07356 ± 0.0015
354.66 K | 0.07059 ± 0.0014
355 K | 0.07059 ± 0.0014
355.37 K | 0.07058 ± 0.0014
364.67 K | 0.06648 ± 0.0014
365.04 K | 0.06636 ± 0.0014
365.43 K | 0.06604 ± 0.0014
374.69 K | 0.06371 ± 0.0013
375.06 K | 0.0631 ± 0.0013
375.44 K | 0.06262 ± 0.0013
384.7 K | 0.06117 ± 0.0013
385.14 K | 0.0606 ± 0.0013
385.48 K | 0.05985 ± 0.0012
394.71 K | 0.05833 ± 0.0012
395.1 K | 0.05813 ± 0.0012
395.52 K | 0.05783 ± 0.0012
404.77 K | 0.05598 ± 0.0012
405.12 K | 0.05595 ± 0.0012
405.54 K | 0.05564 ± 0.0011
414.79 K | 0.05331 ± 0.0011
415.16 K | 0.05316 ± 0.0011
415.54 K | 0.0529 ± 0.0011

Gas
Settings | thermal conductivity [W/m/K]
296.14 K, 121.3 kPa | 0.01256 ± 0.00032
297.06 K, 121.3 kPa | 0.01257 ± 0.00032
297.76 K, 121.3 kPa | 0.01267 ± 0.00033
305.45 K, 123.2 kPa | 0.01342 ± 0.00044
305.99 K, 123.2 kPa | 0.01345 ± 0.00035
306.63 K, 123.2 kPa | 0.01352 ± 0.00038
315.24 K, 203.4 kPa | 0.01425 ± 0.00036
315.99 K, 203.4 kPa | 0.01428 ± 0.00036
316.55 K, 203.4 kPa | 0.01435 ± 0.00036
325.29 K, 203.3 kPa | 0.0152 ± 0.00038
326.02 K, 203.3 kPa | 0.01524 ± 0.00038
326.56 K, 203.3 kPa | 0.01527 ± 0.00038
335.28 K, 291.6 kPa | 0.01607 ± 0.0004
335.96 K, 291.6 kPa | 0.0161 ± 0.0004
336.77 K, 291.6 kPa | 0.01611 ± 0.0004
345.15 K, 303 kPa | 0.01704 ± 0.00042
345.77 K, 303 kPa | 0.0171 ± 0.00043
346.5 K, 303 kPa | 0.01714 ± 0.00043
354.97 K, 738.2 kPa | 0.01782 ± 0.00044
355.04 K, 579.7 kPa | 0.01778 ± 0.00044
355.53 K, 738.2 kPa | 0.01786 ± 0.00044
355.63 K, 579.7 kPa | 0.01782 ± 0.00044
356.17 K, 738.2 kPa | 0.0179 ± 0.00044
356.29 K, 579.7 kPa | 0.01791 ± 0.00044
364.88 K, 954.5 kPa | 0.01876 ± 0.00046
365.05 K, 617.9 kPa | 0.01865 ± 0.00046
365.4 K, 954.5 kPa | 0.01875 ± 0.00046
365.61 K, 617.9 kPa | 0.01873 ± 0.00046
365.96 K, 954.5 kPa | 0.0189 ± 0.00047
366.24 K, 617.9 kPa | 0.01878 ± 0.00046
374.84 K, 1243 kPa | 0.01982 ± 0.00049
374.99 K, 997 kPa | 0.01966 ± 0.00048
375.13 K, 604.2 kPa | 0.01956 ± 0.00048
375.31 K, 1243 kPa | 0.01995 ± 0.00049
375.48 K, 997 kPa | 0.01969 ± 0.00048
375.71 K, 604.2 kPa | 0.01959 ± 0.00048
375.83 K, 1243 kPa | 0.02001 ± 0.00049
376.05 K, 997 kPa | 0.01976 ± 0.00049
376.31 K, 604.2 kPa | 0.01963 ± 0.00048
384.79 K, 1489.1 kPa | 0.0211 ± 0.00052
385.04 K, 998.9 kPa | 0.02061 ± 0.0005
385.2 K, 598.1 kPa | 0.02052 ± 0.0005
385.21 K, 1489.1 kPa | 0.02101 ± 0.00051
385.55 K, 998.9 kPa | 0.02067 ± 0.00051
385.68 K, 1489.1 kPa | 0.02112 ± 0.00052
385.76 K, 598.1 kPa | 0.02059 ± 0.0005
386.13 K, 998.9 kPa | 0.02072 ± 0.00051
386.35 K, 598.1 kPa | 0.0206 ± 0.0005
394.74 K, 1765.3 kPa | 0.02246 ± 0.00055
394.9 K, 1498.3 kPa | 0.02208 ± 0.00054
395.07 K, 602.5 kPa | 0.02148 ± 0.00052
395.09 K, 1004.6 kPa | 0.02149 ± 0.00052
395.16 K, 1765.3 kPa | 0.02251 ± 0.00055
395.36 K, 1498.3 kPa | 0.02216 ± 0.00054
395.52 K, 1765.3 kPa | 0.02258 ± 0.00055
395.58 K, 602.5 kPa | 0.02153 ± 0.00052
395.6 K, 1004.6 kPa | 0.02161 ± 0.00053
395.75 K, 1498.3 kPa | 0.02218 ± 0.00054
395.94 K, 602.5 kPa | 0.02147 ± 0.00052
396.04 K, 1004.6 kPa | 0.02168 ± 0.00053
404.55 K, 2269.8 kPa | 0.02483 ± 0.0006
404.75 K, 1999.2 kPa | 0.02362 ± 0.00057
404.85 K, 1500.7 kPa | 0.02277 ± 0.00055
404.89 K, 2269.8 kPa | 0.02475 ± 0.0006
405 K, 998.4 kPa | 0.02248 ± 0.00055
405.12 K, 604.3 kPa | 0.02248 ± 0.00055
405.14 K, 1999.2 kPa | 0.02364 ± 0.00057
405.29 K, 2269.8 kPa | 0.02484 ± 0.0006
405.3 K, 1500.7 kPa | 0.02285 ± 0.00056
405.48 K, 998.4 kPa | 0.02253 ± 0.00055
405.55 K, 1999.2 kPa | 0.02369 ± 0.00057
405.62 K, 604.3 kPa | 0.02249 ± 0.00055
405.78 K, 1500.7 kPa | 0.02302 ± 0.00056
406.02 K, 998.4 kPa | 0.0227 ± 0.00055
406.18 K, 604.3 kPa | 0.02253 ± 0.00055
414.76 K, 2496.6 kPa | 0.02664 ± 0.00064
414.88 K, 1998 kPa | 0.02456 ± 0.00059
415.04 K, 995.9 kPa | 0.02342 ± 0.00057
415.04 K, 1502.2 kPa | 0.02374 ± 0.00058
415.15 K, 604.1 kPa | 0.02337 ± 0.00057
415.25 K, 2496.6 kPa | 0.02694 ± 0.00065
415.45 K, 1998 kPa | 0.0246 ± 0.0006
415.64 K, 604.1 kPa | 0.02346 ± 0.00057
415.64 K, 1502.2 kPa | 0.02378 ± 0.00058
415.66 K, 2496.6 kPa | 0.02696 ± 0.00065
415.68 K, 995.9 kPa | 0.02355 ± 0.00057
415.92 K, 1998 kPa | 0.02467 ± 0.0006
416.18 K, 1502.2 kPa | 0.02399 ± 0.00058
416.19 K, 604.1 kPa | 0.02348 ± 0.00057
416.22 K, 995.9 kPa | 0.0236 ± 0.00057
